{"source": "patent US6086915A", "about": "“Compositions and methods of adjusting steroid hormone metabolism through phytochemicals” (priority 1998, dated 2000)", "key": {"CYP": {"test_system": "CYP", "conditions": "cited from earlier work"}, "Human Cancer Cells": {"test_system": "Human Cancer Cells", "conditions": "cell culture; cited from earlier work"}, "[1]": {"assay": "DIM stability in simulated gastric environment and shelf-life conditions", "format": "physicochemical", "description": "Therefore the need exists for a bioavailable formulation of DIM as well as related dimers and trimers, since hydrophobic substances like DIM are poorly absorbed."}, "cultured liver cells": {"test_system": "cultured liver cells", "conditions": "added directly to cultured liver cells; cited from earlier work"}, "[2]": {"test_system": "CYP enzymes in colonic epithelium", "conditions": "in diet, mixed with feed; cited from earlier work"}, "CYP 1A1/1A2 and 1B1": {"test_system": "CYP 1A1/1A2 and 1B1", "assay": "Example 10: immunoblot of CYP enzyme induction in uterine and hepatic microsomes after feeding", "format": "in vivo, Sprague-Dawley female rats", "experimental": "CYP enzyme induction was again used as a bio-marker of bioavailability.\nThe study compared the enzyme induction resulting from exposure of female rats to crystalline DIM, I3C and processed DIM at relevant doses in the feed. Levels of CYP 1A1/1A2 and 1B1 were measured in uterine and hepatic microsomes as a surrogate end point of uptake and bioavailability.\nA total of 30 Sprague-Dawley female rats weighing approximately 200 gms were treated as follows:\n1. 5-7 day acclimatization in group cages, feeding on AIN76A minimally inducing diet.\n2. 3 days feeding on same feed mixed with 7 different combinations of dietary indoles.\n3. Sacrifice of animals on about day 10. Harvesting of livers and uteri following perfusion of abdominal organs to remove blood.\n4. Processing of organs to obtain CYP enzyme rich microsomal fraction.\n5. Immunoblot determination of levels of specific CYP enzymes by standard means using existing CYP antibodies.\nMicrosomes from the following groups were assayed:\nOrgan weight was obtained at necropsy. Specific CYP enzyme levels were compared based on standardized densitometry units. […] Results expressed as densitometry units indicating uptake of indole and degree of enzyme induction are listed according to the above groups: […]"}, "[3]": {"assay": "solubility in water and in oil", "format": "physicochemical"}, "[4]": {"conditions": "an hour after oral dose of I3C; cited from earlier work"}, "[5]": {"test_system": "hepatic microsomal metabolism of estrogen", "conditions": "cited from earlier work"}, "p-glycoprotein": {"test_system": "p-glycoprotein", "conditions": "cited from earlier work"}, "[6]": {"test_system": "total cytochrome (CYP) enzymes", "assay": "Example 9: total CYP in liver microsomes of rats fed crystalline or processed DIM (Western Blots)", "format": "in vivo, Sprague Dawley rats", "conditions": "males; 100 mg per kg gavage, 3 consecutive days"}, "hepatic enzyme": {"test_system": "hepatic enzyme", "conditions": "one mg/kg of DIM in corn oil, fed; cited from earlier work"}, "[7]": {"conditions": "cited from earlier work"}, "[8]": {"test_system": "2-hydroxylation of estradiol", "conditions": "cited from earlier work; for shift of estrogen metabolism: I3C, oral"}, "[9]": {"test_system": "2-hydroxylation of estradiol", "conditions": "animals; cited from earlier work"}, "CYP 1A1/1A2 [10]": {"test_system": "CYP 1A1/1A2", "conditions": "mice fed I3C; cited from earlier work"}, "CYP 1A1/1A2 [11]": {"test_system": "CYP 1A1/1A2", "conditions": "rats fed I3C; cited from earlier work"}, "[12]": {"conditions": "oil, organic solvent or mixture, read-out: solubility in oil"}, "[13]": {"conditions": "water, read-out: solubility in water"}}, "note": "Entries after “also recorded” stand apart in the source; their conditions may differ. Where two headings read alike, the source gives them in different places.", "data": [{"smiles": "COc1ccc(-c2cc(=O)c3c(OC)c(OC)c(OC)c(OC)c3o2)cc1", "note": "[Tangeretin, 5,6,7,8,4'-pentamethoxyflavone]", "values": [{"measurement": "CYP induction", "setting": "CYP; dietary intake", "value": "associated with CYP induction"}]}, {"smiles": "c1ccc2c(Cc3c[nH]c4ccccc34)c[nH]c2c1", "note": "[DIM, 3,3'-diindolylmethane]", "values": [{"measurement": "apoptosis", "setting": "Human Cancer Cells", "value": "able to support the cancer preventive behavior of apoptosis"}, {"measurement": "shelf stability", "setting": "[1]; accelerated shelf-life conditions", "value": "shelf stable"}, {"measurement": "indolocarbazole generation", "setting": "[1]; digestion, gastric acid, or accelerated shelf-life conditions", "value": "No indolocarbazole is generated"}, {"measurement": "stability during passage through a simulated gastric environment", "setting": "[1]; simulated gastric environment", "value": "entirely stable"}, {"measurement": "CYP enzyme induction", "setting": "cultured liver cells", "value": "powerful CYP enzyme-inducer"}, {"measurement": "CYP enzyme induction in colonic epithelium", "setting": "[2]", "value": "failed to induce CYP enzymes in colonic epithelium"}, {"measurement": "CYP enzyme induction, Densitometry Units", "setting": "CYP 1A1/1A2 and 1B1; DIM high 10 mg/kg/day, crystalline, in feed 3 days", "value": 0, "unit": "Densitometry Units"}, {"measurement": "CYP enzyme induction, Densitometry Units", "setting": "CYP 1A1/1A2 and 1B1; DIM low 2 mg/kg/day, crystalline, in feed 3 days", "value": 0, "unit": "Densitometry Units"}, {"measurement": "solubility", "setting": "[3]; [12]", "value": 100, "unit": "µg/mL"}, {"measurement": "solubility", "setting": "[3]; [13]", "value": 2.5, "unit": "µg/mL"}, {"measurement": "detection in gastric contents and stomach tissue", "setting": "[4]", "value": "detected in gastric contents and stomach tissue"}, {"measurement": "dose below which activity is lost", "setting": "[5]; DIM in the diet / in sesame oil", "value": "below 5 mg per kg"}, {"measurement": "potency in influencing estrogen metabolism, DIM over I3C", "setting": "[5]; fed to rats", "value": "increased potency of DIM over I3C"}, {"measurement": "lowest dose with enzyme inductive effects", "setting": "[5]; injected intraperitoneally", "value": 0.3, "unit": "mg per kg"}, {"measurement": "p-glycoprotein function", "setting": "p-glycoprotein; cell culture and in vivo", "value": "Inhibition of the function of the p-glycoprotein"}, {"measurement": "effectiveness of chemotherapy drugs in multiply resistant cancer cells", "setting": "p-glycoprotein", "value": "increase the effectiveness of chemotherapy drugs in multiply resistant cancer cells; also recorded: increased effectiveness of chemotherapeutic compounds in multiply resistant cancer cells"}, {"measurement": "interaction with p-glycoprotein membrane structure", "setting": "p-glycoprotein; molecular probe", "value": "direct interaction of DIM with the p-glycoprotein membrane structure"}, {"measurement": "Total CYP (nmol/mg protein), Percent of Control", "setting": "[6]", "value": 140, "unit": "%"}, {"measurement": "hepatic enzyme induction", "setting": "hepatic enzyme", "value": "no hepatic enzyme induction"}]}, {"smiles": "OCc1c[nH]c2ccccc12", "note": "[I3C, indole-3-carbinol]", "values": [{"measurement": "loss of the original I3C", "setting": "[7]; aging conditions simulating a one month period, 43800 min", "value": "approximately 50%"}, {"measurement": "stability", "setting": "[7]; heat, light, moisture, or acidic environments", "value": "unstable and subject to spontaneous breakdown"}, {"measurement": "CYP enzyme induction in colonic epithelium", "setting": "[2]", "value": "powerful inductive activity"}, {"measurement": "CYP enzyme induction, Densitometry Units", "setting": "CYP 1A1/1A2 and 1B1; I3C high 25 mg/kg/day, in feed 3 days", "value": 5.1, "unit": "Densitometry Units"}, {"measurement": "CYP enzyme induction, Densitometry Units", "setting": "CYP 1A1/1A2 and 1B1; I3C low 5 mg/kg/day, in feed 3 days", "value": 0, "unit": "Densitometry Units"}, {"measurement": "minimum dose", "setting": "[8]; I3C dietary supplement", "value": 300, "unit": "mg per person per day"}, {"measurement": "shift of estrogen metabolism", "setting": "[8]", "value": "beneficially shift estrogen metabolism to favor 20 H estrone"}, {"measurement": "shift of estrogen metabolism", "setting": "[8]; listed as indole-3-carbinol", "value": "successful in shifting estrogen metabolism to favor 20 H estrone"}, {"measurement": "2-hydroxylation of estradiol", "setting": "[8]; humans", "value": "increase the 2-hydroxylation of estradiol"}, {"measurement": "2-hydroxylation of estradiol", "setting": "[9]", "value": "increase the 2-hydroxylation of estradiol"}, {"measurement": "hepatic and intestinal levels of CYP 1A1/1A2 enzyme", "setting": "CYP 1A1/1A2 [10]", "value": "increased"}, {"measurement": "hepatic and intestinal levels of CYP 1A1/1A2 enzyme", "setting": "CYP 1A1/1A2 [11]", "value": "increased"}]}, {"smiles": "c1ccc2c(Cc3[nH]c4ccccc4c3Cc3c[nH]c4ccccc34)c[nH]c2c1", "note": "[2,3-bis[3-indolylmethyl]indole]", "values": [{"measurement": "detection in gastric contents and stomach tissue", "setting": "[4]", "value": "detected in gastric contents and stomach tissue"}]}, {"smiles": "Clc1cc2c(cc1Cl)Oc1cc(Cl)c(Cl)cc1O2", "note": "[TCDD, 2,3,7,8-Tetrachlorodibenzo-P-Dioxin]", "values": [{"measurement": "CYP enzyme induction, Densitometry Units", "setting": "CYP 1A1/1A2 and 1B1; positive control, by gavage", "value": 251.7, "unit": "Densitometry Units"}]}, {"smiles": "O=c1cc(-c2ccccc2)oc2cc(O)cc(O)c12", "note": "[chrysin, 5,7-Dihydroxyflavone, reference compound]", "values": [{"measurement": "solubility", "setting": "[3]; [12]", "value": 50, "unit": "µg/mL"}, {"measurement": "solubility", "setting": "[3]; [13]", "value": 0.7, "unit": "µg/mL"}, {"measurement": "CYP-related effects in rat livers", "setting": "CYP; two weeks oral intake at 300 mg/kg of body weight", "value": "no CYP-related effects were noted in rat livers"}]}]}
